# How the values were obtained:
# [1] = test system: HM-TSR cells; experiment: Cell viability assay of TS-resistant HM-TSR cells; format: cell-based, human; settings: TS+ER 48 hours
# Method: TS-resistant cells over-express SLC7A11 and are re-sensitized to TS by Erastin (ER). HM cells were dosed with TS by repetitive drug treatment with a short 24-48 hr recovery period. […] Development of a drug-tolerant cell line with tolerance at […] after 8 months. […] The shift in sensitivity of the HM-TSR-TS line to the HM-TSR-TS/ER line.
# [2] = test system: HM cells; experiment: ROS levels in treated cells; format: cell-based, human; settings: ER or TS+ER, 24 hours
# Method: (§1) Erastin potentiates PRX3 crosslinking and ROS generation by TS. FIG. 10A show Western blot from HM cells treated with TS (1 μM), erastin (ER, 2.5 μM) or TS+ER for 24 hours. Samples were run under reducing conditions by SDS-PAGE. FIG. 10B show quantification of PRX3 dimer (TS-crosslink) to PRX3 monomer (unmodified PRX3) from protein western blots as in A (n=2 biological replicates). FIG. 10C show ROS levels in cells treated with TS, ER, or TS+ER for 24 hours (n=2 biological replicates, 3 technical replicates). FIG. 10D show protein western blot of cells cultured in media+/−cystine and treated with TS or ER. PRX3 crosslinking by TS is increased in cells cultured in cystine free (−) media.
# [3] = test system: PRX3; experiment: PRX3 crosslinking by reducing SDS-PAGE and western blot; format: cell-based, human
# Excerpt: PRX3 is the primary mitochondrial peroxidase required for H2O2 clearance from the mitochondria induced by metabolic, tumorigenic, and drug treatment inputs. During the metabolism of H2O2, PRX3 forms an intramolecular disulfide bond that orients the second active site for TS-dependent covalent crosslinking, inactivating the protein leading to increased oxidative stress and tumor cell death.
# as §1
# [4] = test system: HM cells; experiment: Cell viability assay of HM cells; format: cell-based, human
# Method: (§2) FIG. 8A show BAP1 protein expression in immortalized mesothelial (LP9), pleural Meso (HM, MI), and peritoneal Meso (Pet-Gar) cell lines. […] FIG. 8B show EC50 values for TS in normal and MM cell lines (*p<0.05, **p<0.01, ***p<0.001, ****p <0.0001, n=4 biological replicates) FIG. 8C show protein western blots of BAP1 and GAPDH in HM scramble control (SCR) and BAP1 siRNA expressing (siBAP1) cells. FIG. 8D show cell viability curves of cells treated with TS 48 hours (n=3).
# ZSS>10 indicates synergy between the two compounds.
# TS synergy with ER is independent of ferrostatin sensitive MOA.
# Knockdown of SLC7A11 potentiates TS activity. […] PRX3 crosslinking is increased in the SLC7A11 KD samples.
# [5] = Preclinical animal studies, tolerability; format: in vivo
# Excerpt: (§3) RSO-021 is a PRX3 inhibitor that inactivates PRX3 through direct covalent adduction of active site cysteine residues, in turn, inducing oxidative stress to levels incompatible with tumor cell survival.
# [6] = test system: patient derived explants (PDEs); experiment: Gene set enrichment analysis of patient derived explants treated with TS; format: cell-based, human; settings: PDEs treated with 10 μM of TS vs untreated
# Excerpt: Mesothelioma, a lethal cancer associated with asbestos exposure, lacks effective drug therapy particularly in the relapsed treatment setting. Epithelial-to-mesenchymal transition (EMT) confers an aggressive sarcomatoid phenotype capable of invasion, metastasis, and drug resistance. Pharmacological targeting of EMT could favorably alter the progression and treatment of mesothelioma. Mesothelioma cells rely on buffering of mitochondrial oxidative stress through the expression and activity of mitochondrial peroxiredoxin 3 (PRX3), which is covalently inactivated by the inhibitor RSO-021 (Thiostrepton, TS). To better understand the pharmacodynamics of TS, transcriptomic profiles of drug sensitive and resistant biphasic mesothelioma cell lines were generated. […] Lastly, downregulation of EMT by TS was determined in a cohort of TS treated mesothelioma surgical explants. In summary, PRX3 is a clinically actionable drug target, inhibition of which correlates with EMT modulation.
# [7] = test system: human biphasic mesothelioma cell lines; experiment: RNA-Seq / RT-qPCR gene expression in mesothelioma cells treated with TS; format: cell-based
# Method: Described herein are methods to evaluate changes in gene expression in malignant mesothelioma cells (H-meso cell line) treated with thiostrepton (HM-TS) for 16 hrs and compare to HM-TSR (TS_tolerant cells) grown in the presence of […] TS for several weeks. Biological triplicates were generated, RNA extracted, and RNA integrity evaluated. Cell lysates and cDNA were evaluated for known gene changes by RT-qPCR prior to library builds. Libraries were generated using the SMARTer® Stranded RNA-Seq Kit HT from Takara, pooled and analyzed on the Illumina HiSeq 1500 using a rapid run dual lane SE sequencing flow cell. Each library yielded an average of […] mapped reads.
# Spatial multiregional sampling of adjacent, intra-tumour E (7) vs S (12) regions from 7 patients with bi-phasic mesothelioma was followed by whole exome, transcriptome and 100-plex immunofluorescence analysis (employing cytokeratin-based cell segmentation). Machine learning (random forests) was employed to infer E to S evolutionary trajectories at the genomic, transcriptomic and protein levels. Biphasic human mesothelioma cells were treated with the PRX3 inhibitor RSO-021 (thiostrepton) and gene-expression changes were evaluated by RT-qPCR.
# E and S transition requires Mitochondrial peroxiredoxin 3 (PRX3). […] EMT, hypoxia and glycolysis associated transcription were reduced in RSO-021 treated cells (FIG. 4B). […] Further, MAPK13 (p38) expression is increased in TS treated cells (FIG. 4F). p38 negatively regulates TEAD signaling while TEAD promotes EMT and tumorigenesis. […] TGFb is a master regulator of EMT. VGLL4 inhibits TEAD transcription (FIG. 4H). […] Mesothelin (MSLN) is exclusively expressed in epithelioid MM (FIG. 5A). TS resistant cells increase MSLN expression, indicating a switch to an epithelioid phenotype. EMT is a primary driver in the Epithelioid to sarcomatoid transition (FIG. 5B).
# [8] = test system: BAP1; experiment: BAP1 protein expression by western blot; format: cell-based, human; settings: TS 4 μM; LP9, HM, MI, Pet-Gar cell lines
# Method: as §2
# [9] = test system: mitochondrial PRX3; experiment: Preclinical PRX3 inhibition in transformed cells; format: cell-based
# Excerpt: as §3
# [10] = test system: cytokine levels in pleural effusion; experiment: Phase 1/2 clinical trial: cytokine levels in pleural effusion by ELISA; format: in vivo, human; settings: pleural effusion pre- and post-treatment, weekly intrapleural administration
# Excerpt: FIGS. 7A-7B show administration of RSO-021 and effect on cytokine levels. […] Prior to each dose patients will have pleural effusion drained to dryness per standard of care. After each administration, the IPC is secured until next RSO-021 dosing time point. […] Absolute values as determined following ELISA are shown from 7 patients enrolled on the trial.
# RSO-021 is a PRX3 inhibitor that was investigated in a first-in-human phase ½ clinical trial, recruiting patients with malignant pleural effusion (MPE) arising from mesothelioma or other solid tumors. Mesothelioma cells rely on buffering of mitochondrial oxidative stress through the expression and activity of mitochondrial PRX3, which is covalently inactivated by RSO-021. Inactivation of PRX3 by RSO-021 leads to increased oxidative stress and tumor cell death. RSO-021 may be administered weekly via an intrapleural catheter. Cytokine levels in pleural effusion drainages were measured by ELISA assays. Tumor explants were grown following surgical resection of mesothelioma tumors. RNA sequencing of MM cell lines was conducted. […] RNA sequencing of cells derived from pre-and post-treated MPE aims to identify RSO-021 induced transcriptional changes and their association with clinical activity. […]
structure (smiles),measurement,setting,value
"CCOc1ccccc1-n1c(C(C)N2CCN(C(=O)COc3ccc(Cl)cc3)CC2)nc2ccccc2c1=O (stereo not shown) [Erastin, erastin]",sensitivity of TS-resistant cells to TS,[1],re-sensitized
same,effect on ROS generation by TS,[2],potentiates
same,effect on PRX3 crosslinking by TS,"[3]; HM cells, TS 1 μM, erastin 2.5 μM, 24 hours",potentiates
"CCOC(=O)c1ccc(NC2CCCCC2)c(N)c1 [Fer-1, Ferrostatin]",effect on TS/ER cytotoxic synergy,[4]; 48 hours,does not block
same,effect on ER cytotoxicity,"[4]; 48 hours, FIG. 11A",blocks
same,effect on PRX3 crosslinking by TS or TS+ER,"[3]; cells treated +/- Fer-1, FIG. 11C",does not alter
"C=C(NC(=O)C(=C)NC(=O)c1csc(C2=N[C@@H]3c4csc(n4)[C@H]4NC(=O)c5csc(n5)[C@H]([C@](C)(O)[C@@H](C)O)NC(=O)[C@H]5CSC(=N5)/C(=C/C)NC(=O)[C@H]([C@@H](C)O)NC(=O)c5csc(n5)[C@]3(CC2)NC(=O)[C@H](C)NC(=O)C(=C)NC(=O)[C@H](C)NC(=O)[C@H]([C@@H](C)CC)N[C@@H]2C=Cc3c([C@H](C)O)cc(nc3[C@H]2O)C(=O)O[C@@H]4C)n1)C(N)=O [TS, Thiostrepton]",tolerability,[5],well-tolerated
same,epithelial mesenchymal transition genes,[6],downregulated
same,"EMT, hypoxia and glycolysis associated transcription","[7]; GSEA, treated vs control cells, FIG. 4B",reduced
same,VISTA expression,"[7]; RSO-021 treated cells, FIG. 4D",upregulated
same,MAPK13 (p38) expression,"[7]; TS treated cells, FIG. 4F",increased
same,TGFb1 and TGFb2 expression,"[7]; TS treated cells, FIG. 4G",downregulated
same,"Additional TEAD targets EGFR, DKK1, WNT5B, SLC7A5, and WNT5A","[7]; TS treatment, FIG. 4I",downregulated
same,"TEAD target genes, TGF-β and EMT associated genes including CDH2","[7]; biphasic mesothelioma cells, FIG. 4A",downregulated
same,mesothelin (MSLN) expression,"[7]; biphasic mesothelioma cells, FIG. 4A/4D",upregulated
same,ROS response and apoptosis signaling,[7]; differential transcriptomic analysis,upregulation
same,"expression of mesothelioma specific EMT genes Col5A, mesothelin, and VISTA",[7]; transcriptomic profiles,altered expression
same,BAP1 protein expression,[8],does not alter
same,selectivity of mitochondrial PRX3 inhibition,[9],selectively inhibits
same,"cytokine levels including Resistin, IL-8 and IL-6",[10],significant changes
same,TS activity in relation to BAP1 expression,"[4]; BAP1 siRNA vs scramble, TS 48 hours",independent of BAP1 expression
same,TS activity on knockdown of SLC7A11,"[4]; HM cells, SLC7A11 siRNA",potentiates
same,PRX3 crosslinking,"[3]; SLC7A11 KD samples, FIG. 12C",increased
same,PRX3 crosslinking by TS,[3]; cells cultured in cystine free (−) media,increased
same,modified PRX3 (PRX3-TS),[3]; reducing SDS-PAGE and western blotting,dose-dependent irreversible increase
